The text below walks through data of patent US20050080140A1, “Method for treating or preventing inflammatory disorders” (AnGes MG, Inc., priority 2003, published 2005).

Structures are written as SMILES.

In one test the test system is IL-13 gene. The test is described as follows: RT-PCR analysis of IL-13 mRNA. Type of test: cell-based, human. Particulars: HUVEC, 10 μM cPGI, 12 h, FIG. 1A. The protocol:
For analysis of IL-13, human vascular endothelial cells (1.2×10^4 cells/cm^2) were stimulated with cPGI (10 μM) for 12 h, and total RNA was prepared from stimulated cells with Isogen (Nippon Gene). For analysis of COX-2, human vascular endothelial cells (1.2×10^4 cells/cm^2) were pretreated with TNF-α (1 ng/ml) and IL-1b (20 ng/ml) for 1 h, and then treated with cPGI (0, 10 μM), anti-human IL-13 monoclonal antibody (0, 0.5 μg/ml) and control IgG (0, 0.5 μg/ml) for 12 h to prepare total RNA. The total RNA (0.5 μg) was used for analysis by SuperScript RT-PCR system (Invitrogen) according to the manufacturer's instructions. The oligonucleotide primers used were IL-13-s (5′-[…]-3′ (SEQ ID NO: 6); sense) and IL-13-as (5′-[…]-3′ (SEQ ID NO: 7); antisense) for human IL-13, β-actin-s (5′-[…]-3′ (SEQ ID NO: 8); sense) and β-actin-as (5′-[…]-3′ (SEQ ID NO: 9); antisense) for human β-actin, and COX-2-s (5′-[…]-3′ (SEQ ID NO: 10); sense) and COX-2-as (5′-[…]-3′ (SEQ ID NO: 11); antisense) for human COX-2. For each PCR amplification, 1 μl of cDNA was used in a 50 μl reaction. Reverse transcription-PCR (RT-PCR) for β-actin (25 cycles) was used as an internal control for mRNA abundance. For IL-13 and COX-2 genes, the number of cycles ranged from 25 to 45. […] Samples were normalized based on equivalent expression of β-actin.

The test system of test [1] is promoter region of the human IL-13 gene. Description: IL-13 promoter-luciferase reporter assay. In kind it is cell-based. Particulars: 10 μM cPGI, 24 h. The text has this: Promoter sequences of human IL-13 gene containing PPRE and GATA elements were isolated from human leukocyte genomic DNA by polymerase chain reaction (PCR) with primers A (5′-[…]-3′ (SEQ ID NO: 3); sense) and D (5′-[…]-3′ (SEQ ID No: 4); antisense) for the 1.3 kbp fragment, and B (5′-[…]-3′ (SEQ ID NO: 5); sense) and D for the 0.4 kbp fragment. Each fragment was inserted into the MluI-XbaI site of pGL3-promoter vector (Promega, Madison, Wis.). Human vascular endothelial cells (1.2×10^4 cells/cm^2) were cotransfected with 0.2 μg of IL-13-luciferase reporter vector, 0.1 μg of β-galactosidase expression vector and 0.7 μg of expression vector for PPARδwt, PPARδdn, CREBwt, CREBdn or mock vector by use of TransIT LT-1. After 17 h of transfection, cells were incubated in fresh EGM-2 containing 2% FBS. After another 24 h, the cells were washed with PBS, and cultured in EGF-2 containing 2% FBS with 10 μM cPGI for 24 h to quantify luciferase and β-galactosidase activities as described previously (Hatae et al., J. Biol. Chem. (2001) 276: 46260-7). The luciferase activity of the extract was normalized to β-galactosidase activity.

The subject of test [2] is adhesion between human vascular endothelial cells and monocytic leukocyte U937 cells. Description: Adherence assay of U937 cells to endothelial monolayers. In kind it is cell-based. Particulars: HUVEC. The protocol: HUVEC (2.5×10^4 cells/cm^2) were cultured in 12-well plates. After 24 h, confluent monolayers were used for adherence assays. Monolayers were preincubated in EGM-2 containing 2% FBS, 0 or 10 ng/ml TNF-α, 0 or 10 ng/ml IL-13 and 0 or 10 μM cPGI with or without anti-IL-13 monoclonal antibody (0.5 μg/ml) at 37° C. for 0 to 24 h. Human monocyte leukocyte U937 cells were cultured in RPMI 1640 (Gibco-Invitrogen) containing 10% FBS, 100 U/ml penicillin and […] streptomycin , labeled with 2.5 μM calcein-AM (Molecular Probes, Eugene, Oreg.) at room temperature for 45 min, washed and resuspended in serum-free EGM-2. The calcein-labeled U937 cells (8×10^4 cells/well) were added to pretreated endothelial cells and incubated with cPGI (0, 10 μM), recombinant IL-13 (0, 10 ng/ml) and anti-IL-13 monoclonal antibody (0, 0.5 μg/ml). U937 cells were allowed to adhere to pretreated endothelial cells for 30 min at 37° C. Adherence was assessed with a fluorescence image analyzer (FLA-2000; Fujifilm, Tokyo, Japan). Plates were scanned before and after washing for total and adherent cells, respectively, and relative adherence was calculated (fold of control).

[3] abbreviates: 413 bp IL-13 promoter fragment, FIG. 3.

Turning to `CCCCC[C@H](O)/C=C/[C@@H]1[C@H]2C/C(=C/CCCC(=O)O)C[C@H]2C[C@H]1O` [cPGI, carbaprostacyclin], in the test with IL-13 gene, the “IL-13 mRNA expression (RT-PCR)” value is “apparent induction”. Besides, in test [1] (setting [3]), the “cPGI-dependent IL-13 promoter luciferase activity on coexpression of dominant negative CREB (CREBdn)” value was “no effect” and the “cPGI-dependent increase of IL-13 promoter luciferase activity on cotransfection of dominant negative PPARδ (PPARδdn)” value was “suppressed”. Further, in test [1] (HUVEC, FIG. 2B), the “luciferase activity of reporter vector containing GATA sequences without PPREs” value was “increased only weakly”, the “luciferase activity of reporter vectors containing the PPRE consensus region of the IL-13 promoter” value was “significantly increase” and the “luciferase activity of vectors from which the PPRE consensus sequence region had been deleted” value is recorded as “not increased”. Moreover, the “TNF-α-induced monocytic leukocyte-endothelial cell adhesion” value in test [2] (TNF-α 10 ng/ml plus antibody 0.5 μg/ml, cPGI 10 μM or IL-13 10 ng/ml, 24 h, FIG. 4D lanes 3-5) was “inhibited”. For the same compound, the “adhesion over time, TNF-α pretreatment in the presence of cPGI” value in test [2] (TNF-α 10 ng/ml, cPGI 10 μM, 0 h to 24 h, FIG. 4E) is on record as “dramatically inhibited”.
